{
  "source": "PubChem BioAssay AID2060483",
  "about": "(Molecular Pharmacology Branch, DTP, NCI, 2025);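 also: spheroids exposed to compounds for seven days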",
  "test_system": "K24384-001-R-PDC complex spheroids, viability",
  "experiment": "Anticancer human tumor K24384-001-R-PDC patient-derived pancreatic adenocarcinoma cell line growth inhibition [GQUAD]",
  "conditions": "for IC50: curve of first compound; for viability, T/C: stronger effect = lower value",
  "how_it_was_run": "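Multi-cell-type spheroids of tumor cells with HUVEC and mesenchymal stem cells, treated with drug combinations. Concentrations descend in half-log steps from near clinical Cmax, or from 10 microM where Cmax is unknown; viability read-out.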",
  "key": {"[1]": {"conditions": "second compound 0.0316 µM, first compound 0.0316 µM"}, "[2]": {"conditions": "second compound 0.0316 µM, first compound 0.1 µM"}, "[3]": {"conditions": "second compound 0.0316 µM, first compound 0.316 µM"}, "[4]": {"conditions": "second compound 0.0316 µM, first compound 1 µM"}, "[5]": {"conditions": "second compound 0.0316 µM, first compound 3.16 µM"}, "[6]": {"conditions": "second compound 0.0316 µM, first compound 10 µM"}, "[7]": {"conditions": "second compound 0.1 µM, first compound 0.0316 µM"}, "[8]": {"conditions": "second compound 0.1 µM, first compound 0.1 µM"}, "[9]": {"conditions": "second compound 0.1 µM, first compound 0.316 µM"}, "[10]": {"conditions": "second compound 0.1 µM, first compound 1 µM"}, "[11]": {"conditions": "second compound 0.1 µM, first compound 3.16 µM"}, "[12]": {"conditions": "second compound 0.1 µM, first compound 10 µM"}, "[13]": {"conditions": "second compound 0.316 µM, first compound 0.0316 µM"}, "[14]": {"conditions": "second compound 0.316 µM, first compound 0.1 µM"}, "[15]": {"conditions": "second compound 0.316 µM, first compound 0.316 µM"}, "[16]": {"conditions": "second compound 0.316 µM, first compound 1 µM"}, "[17]": {"conditions": "second compound 0.316 µM, first compound 3.16 µM"}, "[18]": {"conditions": "second compound 0.316 µM, first compound 10 µM"}, "[19]": {"conditions": "second compound 1 µM, first compound 0.0316 µM"}, "[20]": {"conditions": "second compound 1 µM, first compound 0.1 µM"}, "[21]": {"conditions": "second compound 1 µM, first compound 0.316 µM"}, "[22]": {"conditions": "second compound 1 µM, first compound 1 µM"}, "[23]": {"conditions": "second compound 1 µM, first compound 3.16 µM"}, "[24]": {"conditions": "second compound 1 µM, first compound 10 µM"}, "[25]": {"conditions": "second compound 3.16 µM, first compound 0.0316 µM"}, "[26]": {"conditions": "second compound 3.16 µM, first compound 0.1 µM"}, "[27]": {"conditions": "second compound 3.16 µM, first compound 0.316 µM"}, "[28]": {"conditions": "second compound 3.16 µM, first compound 1 µM"}, "[29]": {"conditions": "second compound 3.16 µM, first compound 3.16 µM"}, "[30]": {"conditions": "second compound 3.16 µM, first compound 10 µM"}, "[31]": {"conditions": "second compound 10 µM, first compound 0.0316 µM"}, "[32]": {"conditions": "second compound 10 µM, first compound 0.1 µM"}, "[33]": {"conditions": "second compound 10 µM, first compound 0.316 µM"}, "[34]": {"conditions": "second compound 10 µM, first compound 1 µM"}, "[35]": {"conditions": "second compound 10 µM, first compound 3.16 µM"}, "[36]": {"conditions": "second compound 10 µM, first compound 10 µM"}},
  "data": [
    {"smiles": "CCCS(=O)(=O)Nc1ccc(F)c(C(=O)c2c[nH]c3ncc(-c4ccc(Cl)cc4)cc23)c1F", "note": "+ CN(C)c1ccc(Nc2c3ccc(NC(=O)CCN4CCCC4)cc3nc3cc(NC(=O)CCN4CCCC4)ccc23)cc1", "values": [
      {"measurement": "IC50", "setting": "second compound 0.0316 µM", "result": "> 10000", "unit": "nM"},
      {"measurement": "IC50", "setting": "second compound 0.1 µM", "result": 9980, "unit": "nM"},
      {"measurement": "IC50", "setting": "second compound 0.316 µM", "result": "> 10000", "unit": "nM"},
      {"measurement": "IC50", "setting": "second compound 1 µM", "result": "> 10000", "unit": "nM"},
      {"measurement": "IC50", "setting": "second compound 3.16 µM", "result": 9350, "unit": "nM"},
      {"measurement": "IC50", "setting": "second compound 10 µM", "result": 7840, "unit": "nM"},
      {"measurement": "viability, T/C", "setting": "[1]", "result": 110, "unit": "%"},
      {"measurement": "viability, T/C", "setting": "[2]", "result": 102, "unit": "%"},
      {"measurement": "viability, T/C", "setting": "[3]", "result": 129, "unit": "%"},
      {"measurement": "viability, T/C", "setting": "[4]", "result": 128, "unit": "%"},
      {"measurement": "viability, T/C", "setting": "[5]", "result": 138, "unit": "%"},
      {"measurement": "viability, T/C", "setting": "[6]", "result": 54, "unit": "%"},
      {"measurement": "viability, T/C", "setting": "[7]", "result": 98.5, "unit": "%"},
      {"measurement": "viability, T/C", "setting": "[8]", "result": 118, "unit": "%"},
      {"measurement": "viability, T/C", "setting": "[9]", "result": 113, "unit": "%"},
      {"measurement": "viability, T/C", "setting": "[10]", "result": 124, "unit": "%"},
      {"measurement": "viability, T/C", "setting": "[11]", "result": 150, "unit": "%"},
      {"measurement": "viability, T/C", "setting": "[12]", "result": 49.8, "unit": "%"},
      {"measurement": "viability, T/C", "setting": "[13]", "result": 93.5, "unit": "%"},
      {"measurement": "viability, T/C", "setting": "[14]", "result": 114, "unit": "%"},
      {"measurement": "viability, T/C", "setting": "[15]", "result": 124, "unit": "%"},
      {"measurement": "viability, T/C", "setting": "[16]", "result": 125, "unit": "%"},
      {"measurement": "viability, T/C", "setting": "[17]", "result": 144, "unit": "%"},
      {"measurement": "viability, T/C", "setting": "[18]", "result": 52, "unit": "%"},
      {"measurement": "viability, T/C", "setting": "[19]", "result": 102, "unit": "%"},
      {"measurement": "viability, T/C", "setting": "[20]", "result": 105, "unit": "%"},
      {"measurement": "viability, T/C", "setting": "[21]", "result": 117, "unit": "%"},
      {"measurement": "viability, T/C", "setting": "[22]", "result": 131, "unit": "%"},
      {"measurement": "viability, T/C", "setting": "[23]", "result": 154, "unit": "%"},
      {"measurement": "viability, T/C", "setting": "[24]", "result": 53.3, "unit": "%"},
      {"measurement": "viability, T/C", "setting": "[25]", "result": 92.7, "unit": "%"},
      {"measurement": "viability, T/C", "setting": "[26]", "result": 101, "unit": "%"},
      {"measurement": "viability, T/C", "setting": "[27]", "result": 97.2, "unit": "%"},
      {"measurement": "viability, T/C", "setting": "[28]", "result": 128, "unit": "%"},
      {"measurement": "viability, T/C", "setting": "[29]", "result": 140, "unit": "%"},
      {"measurement": "viability, T/C", "setting": "[30]", "result": 46, "unit": "%"},
      {"measurement": "viability, T/C", "setting": "[31]", "result": 84.3, "unit": "%"},
      {"measurement": "viability, T/C", "setting": "[32]", "result": 114, "unit": "%"},
      {"measurement": "viability, T/C", "setting": "[33]", "result": 109, "unit": "%"},
      {"measurement": "viability, T/C", "setting": "[34]", "result": 149, "unit": "%"},
      {"measurement": "viability, T/C", "setting": "[35]", "result": 139, "unit": "%"},
      {"measurement": "viability, T/C", "setting": "[36]", "result": 31.3, "unit": "%"}
    ]},
    {"smiles": "Nc1ccn(C2OC(CO)C(O)C2(F)F)c(=O)n1", "note": "(centres undefined) + CN(C)c1ccc(Nc2c3ccc(NC(=O)CCN4CCCC4)cc3nc3cc(NC(=O)CCN4CCCC4)ccc23)cc1", "values": [
      {"measurement": "IC50", "setting": "second compound 0.0316 µM", "result": 238, "unit": "nM"},
      {"measurement": "IC50", "setting": "second compound 0.1 µM", "result": 157, "unit": "nM"},
      {"measurement": "IC50", "setting": "second compound 0.316 µM", "result": 152, "unit": "nM"},
      {"measurement": "IC50", "setting": "second compound 1 µM", "result": 111, "unit": "nM"},
      {"measurement": "IC50", "setting": "second compound 3.16 µM", "result": 144, "unit": "nM"},
      {"measurement": "IC50", "setting": "second compound 10 µM", "result": 118, "unit": "nM"},
      {"measurement": "viability, T/C", "setting": "[1]", "result": 73.4, "unit": "%"},
      {"measurement": "viability, T/C", "setting": "[2]", "result": 66.5, "unit": "%"},
      {"measurement": "viability, T/C", "setting": "[3]", "result": 40.9, "unit": "%"},
      {"measurement": "viability, T/C", "setting": "[4]", "result": 35.9, "unit": "%"},
      {"measurement": "viability, T/C", "setting": "[5]", "result": 23.1, "unit": "%"},
      {"measurement": "viability, T/C", "setting": "[6]", "result": 21.4, "unit": "%"},
      {"measurement": "viability, T/C", "setting": "[7]", "result": 78.1, "unit": "%"},
      {"measurement": "viability, T/C", "setting": "[8]", "result": 57.2, "unit": "%"},
      {"measurement": "viability, T/C", "setting": "[9]", "result": 38.2, "unit": "%"},
      {"measurement": "viability, T/C", "setting": "[10]", "result": 30.8, "unit": "%"},
      {"measurement": "viability, T/C", "setting": "[11]", "result": 19.8, "unit": "%"},
      {"measurement": "viability, T/C", "setting": "[12]", "result": 19.8, "unit": "%"},
      {"measurement": "viability, T/C", "setting": "[13]", "result": 68.1, "unit": "%"},
      {"measurement": "viability, T/C", "setting": "[14]", "result": 56.6, "unit": "%"},
      {"measurement": "viability, T/C", "setting": "[15]", "result": 38.7, "unit": "%"},
      {"measurement": "viability, T/C", "setting": "[16]", "result": 30.3, "unit": "%"},
      {"measurement": "viability, T/C", "setting": "[17]", "result": 20.6, "unit": "%"},
      {"measurement": "viability, T/C", "setting": "[18]", "result": 17.2, "unit": "%"},
      {"measurement": "viability, T/C", "setting": "[19]", "result": 71.9, "unit": "%"},
      {"measurement": "viability, T/C", "setting": "[20]", "result": 49.9, "unit": "%"},
      {"measurement": "viability, T/C", "setting": "[21]", "result": 39.2, "unit": "%"},
      {"measurement": "viability, T/C", "setting": "[22]", "result": 24.4, "unit": "%"},
      {"measurement": "viability, T/C", "setting": "[23]", "result": 19.9, "unit": "%"},
      {"measurement": "viability, T/C", "setting": "[24]", "result": 16.8, "unit": "%"},
      {"measurement": "viability, T/C", "setting": "[25]", "result": 76.5, "unit": "%"},
      {"measurement": "viability, T/C", "setting": "[26]", "result": 57.6, "unit": "%"},
      {"measurement": "viability, T/C", "setting": "[27]", "result": 33.7, "unit": "%"},
      {"measurement": "viability, T/C", "setting": "[28]", "result": 23.3, "unit": "%"},
      {"measurement": "viability, T/C", "setting": "[29]", "result": 18.6, "unit": "%"},
      {"measurement": "viability, T/C", "setting": "[30]", "result": 15.6, "unit": "%"},
      {"measurement": "viability, T/C", "setting": "[31]", "result": 63.6, "unit": "%"},
      {"measurement": "viability, T/C", "setting": "[32]", "result": 54.1, "unit": "%"},
      {"measurement": "viability, T/C", "setting": "[33]", "result": 32.8, "unit": "%"},
      {"measurement": "viability, T/C", "setting": "[34]", "result": 27.9, "unit": "%"},
      {"measurement": "viability, T/C", "setting": "[35]", "result": 18.3, "unit": "%"},
      {"measurement": "viability, T/C", "setting": "[36]", "result": 18.2, "unit": "%"}
    ]}
  ]
}
